Source: patent publication US11236086B2, “Substituted pyrrolopyridines as inhibitors of activin receptor-like kinase” (BLUEPRINT MEDICINES CORPORATION, priority 2017, dated 2022)
pIC50: −log10 of the molar value.

Each molecule was assayed against T1, ALK2R206H (mutant ALK2, N-terminally tagged with GST) (Homo sapiens, UniProt Q04771, R206H) (assay: ALK binding assay (LANTHASCREEN TR-FRET competitive binding, displacement of Kinase Tracer 178)). Details: read-out: Binding Assay (IC50 class).
T1 construct: purchased Carna Bioscience or ThermoFisher 09-148 or PV6232
T1 sequence (Q04771 21-509 R206H): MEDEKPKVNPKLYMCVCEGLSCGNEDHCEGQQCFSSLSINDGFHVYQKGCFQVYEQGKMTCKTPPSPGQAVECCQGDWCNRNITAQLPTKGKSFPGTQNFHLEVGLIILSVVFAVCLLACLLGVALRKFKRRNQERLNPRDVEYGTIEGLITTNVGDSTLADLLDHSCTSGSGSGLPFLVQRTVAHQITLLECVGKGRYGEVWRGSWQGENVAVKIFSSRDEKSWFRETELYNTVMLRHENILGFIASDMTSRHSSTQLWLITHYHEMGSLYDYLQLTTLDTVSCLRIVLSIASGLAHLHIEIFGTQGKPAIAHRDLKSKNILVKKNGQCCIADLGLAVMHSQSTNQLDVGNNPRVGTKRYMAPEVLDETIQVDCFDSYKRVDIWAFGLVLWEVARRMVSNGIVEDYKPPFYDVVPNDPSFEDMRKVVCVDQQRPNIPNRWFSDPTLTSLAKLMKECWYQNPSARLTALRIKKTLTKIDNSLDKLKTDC
In short: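 GST-tagged ALK2 R206H (2-5 nM) mixed with Eu-anti-GST antibody (4-10 nM), Kinase Tracer 178 (50 nM, near its Kd) and compound titration (1% DMSO) in Kinase Buffer A, 30 min at room temperature. Tracer displacement read as TR-FRET ratio, normalized to controls; IC50 from 4-parameter fit.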

Structure (SMILES) | pIC50
Cn1cc(-c2cc3c(N4CCN(C(=O)OCC(F)F)CC4)ccnc3[nH]2)cn1 [Compound 126] | ≥ 8.00
COC(=O)COc1ccc(-c2cc3c(N4CCN(C(=O)C5CC5)CC4)ccnc3[nH]2)cc1 [Compound 348] | ≥ 8.00
N#Cc1ccc(-c2cc3c(N4CCN(C(=O)C5CC5)CC4)ccnc3[nH]2)cc1 [Compound 45] | ≥ 8.00
CCOC(=O)N1CCN(c2ccnc3[nH]c(-c4cnn(C(C)(C)C#N)c4)cc23)CC1 [Compound 213] | ≥ 8.00
COc1cccc(-c2cc3c(N4CCN(C(=O)C5CC5)CC4)ccnc3[nH]2)c1 [Compound 59] | ≥ 8.00
Cc1nc(-c2[nH]c3nccc(N4CCN(C(=O)OC5CCC5)CC4)c3c2C#N)cs1 [Compound 294] | ≥ 8.00
CC(C)(O)c1nc(-c2cc3c(N4CCN(C(=O)OC5COC5)CC4)ccnc3[nH]2)cs1 [Compound 378] | ≥ 8.00
Cn1cnc(-c2cc3c(N4CCN(C(=O)OC5CC(F)(F)C5)CC4)ccnc3[nH]2)c1 [Compound 269] | ≥ 8.00
O=C(C1CC1)N1CCN(c2ccnc3[nH]c(-c4ccc(N5CCOCC5)cc4)cc23)CC1 [Compound 335] | ≥ 8.00
Cn1cc(-c2[nH]c3nccc(N4CCN(C(=O)OCC(F)F)CC4)c3c2C#N)cn1 [Compound 256] | ≥ 8.00
CCOC(=O)N1CCN(c2ccnc3[nH]c(-c4ccc(C#N)cn4)cc23)CC1 [Compound 56] | ≥ 8.00
CCOC(=O)N1CCN(c2ccnc3[nH]c(-c4cnn(C5COC5)c4)cc23)CC1 [Compound 145] | ≥ 8.00
C[C@H](F)COC(=O)N1CCN(c2ccnc3[nH]c(-c4cnn(C)c4)cc23)CC1 [Compound 116] | ≥ 8.00

Results, then the molecule that gave them:

pIC50 | Structure (SMILES)
≥ 8.00 | Cn1cc(-c2[nH]c3nccc(N4CCN(C(=O)OC5COC5)CC4)c3c2Br)cn1 [Compound 426]
≥ 8.00 | CCN1CCN(c2ccc(-c3cc4c(N5CCN(C(=O)C6CC6)CC5)ccnc4[nH]3)c(Cl)c2)CC1 [Compound 456]
≥ 8.00 | CCN1CCN(c2ccc(-c3cc4c(N5CCN(C(=O)C6CC6)CC5)ccnc4[nH]3)cc2)CC1 [Compound 418]
≥ 8.00 | O=C(COc1ccc(-c2cc3c(N4CCN(C(=O)C5CC5)CC4)ccnc3[nH]2)cc1)N1CCC1 [Compound 420]
≥ 8.00 | CC(C)N1CCC[C@@H](c2ccc(-c3cc4c(N5CCN(C(=O)OC6COC6)CC5)ccnc4[nH]3)cc2)C1 [Compound 466]
≥ 8.00 | O=C(OC1COC1)N1CCN(c2ccnc3[nH]c(-c4ccc(C5(O)CCC5)cc4)cc23)CC1 [Compound 392]

What follows are molecules tested against T2, human ALK2 R206H (Homo sapiens, UniProt Q04771, R206H) (assay: Cell-based ALK2-R206H cell activity assay (Smad1-Ser463/Ser465 phosphorylation by AlphaLISA in HEK293-ALK2-R206H cells)). Details: phospho-Smad1 AlphaLISA, read-out: Cell Line (Cell Assay, IC50 class).
T2 construct: expressed in transfected cells; host or cells: HEK293 (ATCC CRL1573), lentivirus transduction, blasticidin selection
T2 sequence (Q04771 21-509 R206H): T1 sequence (Q04771 21-509 R206H)
In short: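 HEK293 stable line expressing human ALK2 R206H with C-terminal FLAG, plated overnight in serum-free medium. Cells were treated 2-3 h with compound over 10 3-fold doses, top 10 μM or 1 μM, in duplicate. Phospho-Smad1 Ser463/465 in lysate was read by AlphaLISA; IC50 was normalised to DMSO (0%) and 1 μM LDN193189 (100%).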

Structure (SMILES) | pIC50
Cn1cc(-c2cc3c(N4CCN(C(=O)OCC(F)F)CC4)ccnc3[nH]2)cn1 [Compound 126] | ≥ 7.00
COC(=O)COc1ccc(-c2cc3c(N4CCN(C(=O)C5CC5)CC4)ccnc3[nH]2)cc1 [Compound 348] | < 6.30
N#Cc1ccc(-c2cc3c(N4CCN(C(=O)C5CC5)CC4)ccnc3[nH]2)cc1 [Compound 45] | ≥ 7.00
CCOC(=O)N1CCN(c2ccnc3[nH]c(-c4cnn(C(C)(C)C#N)c4)cc23)CC1 [Compound 213] | 6.30 to 7.00
COc1cccc(-c2cc3c(N4CCN(C(=O)C5CC5)CC4)ccnc3[nH]2)c1 [Compound 59] | 6.30 to 7.00
Cc1nc(-c2[nH]c3nccc(N4CCN(C(=O)OC5CCC5)CC4)c3c2C#N)cs1 [Compound 294] | ≥ 7.00
CC(C)(O)c1nc(-c2cc3c(N4CCN(C(=O)OC5COC5)CC4)ccnc3[nH]2)cs1 [Compound 378] | 6.30 to 7.00
Cn1cnc(-c2cc3c(N4CCN(C(=O)OC5CC(F)(F)C5)CC4)ccnc3[nH]2)c1 [Compound 269] | ≥ 7.00
O=C(C1CC1)N1CCN(c2ccnc3[nH]c(-c4ccc(N5CCOCC5)cc4)cc23)CC1 [Compound 335] | ≥ 7.00
Cn1cc(-c2[nH]c3nccc(N4CCN(C(=O)OCC(F)F)CC4)c3c2C#N)cn1 [Compound 256] | ≥ 7.00
CCOC(=O)N1CCN(c2ccnc3[nH]c(-c4ccc(C#N)cn4)cc23)CC1 [Compound 56] | 6.30 to 7.00
CCOC(=O)N1CCN(c2ccnc3[nH]c(-c4cnn(C5COC5)c4)cc23)CC1 [Compound 145] | ≥ 7.00
C[C@H](F)COC(=O)N1CCN(c2ccnc3[nH]c(-c4cnn(C)c4)cc23)CC1 [Compound 116] | ≥ 7.00

More lines, now with the values ahead:

pIC50 | Structure (SMILES)
6.30 to 7.00 | Cn1cc(-c2[nH]c3nccc(N4CCN(C(=O)OC5COC5)CC4)c3c2Br)cn1 [Compound 426]
≥ 7.00 | CCN1CCN(c2ccc(-c3cc4c(N5CCN(C(=O)C6CC6)CC5)ccnc4[nH]3)c(Cl)c2)CC1 [Compound 456]
≥ 7.00 | CCN1CCN(c2ccc(-c3cc4c(N5CCN(C(=O)C6CC6)CC5)ccnc4[nH]3)cc2)CC1 [Compound 418]
6.30 to 7.00 | O=C(COc1ccc(-c2cc3c(N4CCN(C(=O)C5CC5)CC4)ccnc3[nH]2)cc1)N1CCC1 [Compound 420]
≥ 7.00 | CC(C)N1CCC[C@@H](c2ccc(-c3cc4c(N5CCN(C(=O)OC6COC6)CC5)ccnc4[nH]3)cc2)C1 [Compound 466]
≥ 7.00 | O=C(OC1COC1)N1CCN(c2ccnc3[nH]c(-c4ccc(C5(O)CCC5)cc4)cc23)CC1 [Compound 392]
